Source: US20190152992A1, “BENZODIOXANE DERIVATIVES AND THEIR PHARMACEUTICAL USE” (Orion Corporation, priority 2016, published 2019)
Counter-ions that a name gives are not always drawn.

Key:
human alpha2A receptors = biological target: T1, human alpha2A receptors (Homo sapiens, UniProt P08913); assay: cell-based
T1 sequence (P08913 1-465): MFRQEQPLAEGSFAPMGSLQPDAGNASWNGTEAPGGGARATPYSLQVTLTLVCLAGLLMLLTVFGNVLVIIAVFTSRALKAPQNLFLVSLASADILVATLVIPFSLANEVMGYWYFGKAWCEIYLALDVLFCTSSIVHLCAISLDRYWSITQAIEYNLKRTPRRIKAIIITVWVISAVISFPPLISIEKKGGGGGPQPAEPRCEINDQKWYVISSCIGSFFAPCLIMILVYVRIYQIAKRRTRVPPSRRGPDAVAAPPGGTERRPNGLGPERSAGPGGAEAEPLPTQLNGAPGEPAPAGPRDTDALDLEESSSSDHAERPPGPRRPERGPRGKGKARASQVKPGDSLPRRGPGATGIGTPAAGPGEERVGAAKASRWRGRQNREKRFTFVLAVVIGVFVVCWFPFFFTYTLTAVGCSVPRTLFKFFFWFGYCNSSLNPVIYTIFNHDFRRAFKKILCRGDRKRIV

human alpha2C receptors = biological target: T2, human alpha2C receptors (Homo sapiens, UniProt P18825); assay: Determination of alpha2C antagonistic activity in vitro (FLIPR calcium assay); conditions: for Kb: Alpha 2C Adrenaline Kb, Kb calculated from IC50 with the Cheng-Prusoff equation, adrenaline as agonist, CHO cells, human alpha2C
T2 sequence (P18825 1-462): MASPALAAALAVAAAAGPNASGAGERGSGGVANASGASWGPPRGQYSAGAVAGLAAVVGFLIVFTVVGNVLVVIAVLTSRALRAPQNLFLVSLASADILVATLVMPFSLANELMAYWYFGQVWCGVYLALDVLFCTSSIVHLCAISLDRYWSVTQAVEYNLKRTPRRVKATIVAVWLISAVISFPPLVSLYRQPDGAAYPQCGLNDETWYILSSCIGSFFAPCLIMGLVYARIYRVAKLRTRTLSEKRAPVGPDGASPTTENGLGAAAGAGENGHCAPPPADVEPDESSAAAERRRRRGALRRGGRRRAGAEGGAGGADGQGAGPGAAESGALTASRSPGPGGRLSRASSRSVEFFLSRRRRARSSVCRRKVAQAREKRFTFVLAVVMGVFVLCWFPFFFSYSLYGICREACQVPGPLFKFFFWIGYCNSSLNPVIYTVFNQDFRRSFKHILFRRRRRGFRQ
Description: Experiment 1: Determination of alpha2A and alpha2C Antagonistic Activity In Vitro
The growth medium was removed and the cells were incubated with the test compounds and the FLIPR Calcium 6 Assay reagent (Molecular Devices, CA, USA) for 2 h at 37° C. in dark. The test compounds (concentrations in cells 100 pM-10 μM) were dissolved in Probenecid-Ringer consisting of 150 mM NaCl, 3 mM KCl, 1.2 mM MgCl2, 1 mM CaCl2, 5 mM glucose, 20 mM HEPES and 2.5 mM probenecid (pH 7.4 adjusted with 1.0 M NaOH). […] All experiments were performed at 37° C. For agonism measurements the test compounds dissolved in Probenecid-Ringer were applied by FLIPR Tetra at 15 s time point. In order to determine antagonism, the cells were stimulated either with 100 nM adrenaline or noradrenaline and the test compounds were added to the cells 2 h before the experiment with the FLIPR Calcium 6 Assay reagent. […] Typically, there were four replicates at each concentration and six different dose levels. […] The minimum fluorescence value subtracted from the maximum value for each well was used in the calculations. ScreenWorks version 4.0 software was used for analyzing the results. Fitting of the antagonist dose-response results was performed with the free Hill equation and the IC50 values were fitted with IDBS XE software using model 200: y=(A+(B/(1+((x/C)̂D)))), where A is the curve maximum, B the curve minimum and C equals the EC50 value. D is slope factor (Hill). Kb was calculated with the Cheng-Prusoff equation Kb=A/((B/C)+1), where A is the IC50 of antagonist, B the concentration of agonist and C the EC50 of the agonist.

## O=C1c2ccc(Cl)cc2CN1[C@H]1CCCN(C[C@H]2COc3ccccc3O2)C1 [example 60, 5-Chloro-2-((S)-1-(((S)-2,3-dihydrobenzo[b][1,4]dioxin-2-yl)methyl)piperidin-3-yl)isoindolin-1-one]
Human alpha2A receptors
  IC50: > 10000 nM
  Kb: > 449 nM
Human alpha2C receptors
  IC50: < 0.1 nM
  Kb: < 0.01 nM

## O=C1c2ccccc2C(=O)N1[C@H]1CCCN(C[C@H]2COc3ccccc3O2)C1 [example 61, 2-((S)-1-(((S)-2,3-Dihydrobenzo[b][1,4]dioxin-2-yl)methyl)piperidin-3-yl)isoindoline-1,3-dione]
Human alpha2A receptors
  IC50: > 10000 nM
  Kb: > 449 nM
Human alpha2C receptors
  IC50: 0.062 nM
  Kb: 0.006 nM

## O=C1c2ccc(F)cc2C(=O)N1[C@H]1CCCN(C[C@H]2COc3ccccc3O2)C1 [example 62, 2-((S)-1-(((S)-2,3-Dihydrobenzo[b][1,4]dioxin-2-yl)methyl)piperidin-3-yl)-5-fluoroisoindoline-1,3-dione]
Human alpha2A receptors
  IC50: > 10000 nM
  Kb: > 449 nM
Human alpha2C receptors
  IC50: < 0.1 nM
  Kb: < 0.01 nM

## O=C1c2cccc(F)c2C(=O)N1[C@H]1CCCN(C[C@H]2COc3ccccc3O2)C1 [example 63, 2-((S)-1-(((S)-2,3-Dihydrobenzo[b][1,4]dioxin-2-yl)methyl)piperidin-3-yl)-4-fluoroisoindoline-1,3-dione hydrochloride]
Human alpha2A receptors
  IC50: > 10000 nM
  Kb: > 449 nM
Human alpha2C receptors
  IC50: < 0.1 nM
  Kb: < 0.01 nM

## O=C1c2cccc(Cl)c2C(=O)N1[C@H]1CCCN(C[C@H]2COc3ccccc3O2)C1 [example 64, 4-Chloro-2-((S)-1-(((S)-2,3-dihydrobenzo[b][1,4]dioxin-2-yl)methyl)piperidin-3-yl)isoindoline-1,3-dione hydrochloride]
Human alpha2A receptors
  IC50: > 10000 nM
  Kb: > 449 nM
Human alpha2C receptors
  IC50: 43.5 nM
  Kb: 4.38 nM

## COc1cccc2c1C(=O)N([C@H]1CCCN(C[C@H]3COc4ccccc4O3)C1)C2=O [example 65, 2-((S)-1-(((S)-2,3-Dihydrobenzo[b][1,4]dioxin-2-yl)methyl)piperidin-3-yl)-4-methoxyisoindoline-1,3-dione]
Human alpha2A receptors
  IC50: > 10000 nM
  Kb: > 449 nM
Human alpha2C receptors
  IC50: < 0.1 nM
  Kb: < 0.01 nM

## COc1ccc2c(c1OC)C(=O)N([C@H]1CCCN(C[C@H]3COc4ccccc4O3)C1)C2=O [example 66, 2-((S)-1-(((S)-2,3-Dihydrobenzo[b][1,4]dioxin-2-yl)methyl)piperidin-3-yl)-4,5-dimethoxyisoindoline-1,3-dione hydrochloride]
Human alpha2A receptors
  IC50: > 10000 nM
  Kb: > 449 nM
Human alpha2C receptors
  IC50: < 0.01 nM
  Kb: < 0.001 nM

## N#Cc1ccc2c(c1)CN([C@H]1CCCN(C[C@H]3COc4ccccc4O3)C1)C2=O [example 67, 2-((S)-1-(((S)-2,3-Dihydrobenzo[b][1,4]dioxin-2-yl)methyl)piperidin-3-yl)-1-oxoisoindoline-5-carbonitrile]
Human alpha2A receptors
  IC50: > 10000 nM
  Kb: > 449 nM
Human alpha2C receptors
  IC50: 1.3 nM
  Kb: 0.132 nM

## COc1cc2c(cc1OC)C(=O)N([C@H]1CCCN(C[C@H]3COc4ccccc4O3)C1)C2 [example 68, 2-((S)-1-(((S)-2,3-Dihydrobenzo[b][1,4]dioxin-2-yl)methyl)piperidin-3-yl)-5,6-dimethoxyisoindolin-1-one]
Human alpha2A receptors
  IC50: > 10000 nM
  Kb: > 449 nM
Human alpha2C receptors
  IC50: 2.79 nM
  Kb: 0.282 nM

## COc1ccc2c(c1)CN([C@H]1CCCN(C[C@H]3COc4ccccc4O3)C1)C2=O [example 69, 2-((S)-1-(((S)-2,3-Dihydrobenzo[b][1,4]dioxin-2-yl)methyl)piperidin-3-yl)-5-methoxyisoindolin-1-one]
Human alpha2A receptors
  IC50: > 10000 nM
  Kb: > 449 nM
Human alpha2C receptors
  IC50: 0.89 nM
  Kb: 0.09 nM

## COc1ccc2c(c1)C(=O)N([C@H]1CCCN(C[C@H]3COc4ccccc4O3)C1)C2 [example 70, 2-((S)-1-(((S)-2,3-Dihydrobenzo[b][1,4]dioxin-2-yl)methyl)piperidin-3-yl)-6-methoxyisoindolin-1-one]
Human alpha2A receptors
  IC50: > 10000 nM
  Kb: > 449 nM
Human alpha2C receptors
  IC50: 0.905 nM
  Kb: 0.091 nM

## CC(=O)NCc1ccc2c(c1)CN([C@H]1CCCN(C[C@H]3COc4ccccc4O3)C1)C2=O [example 71, N-((2-((S)-1-(((S)-2,3-Dihydrobenzo[b][1,4]dioxin-2-yl)methyl)piperidin-3-yl)-1-oxoisoindolin-5-yl)methyl)acetamide]
Human alpha2A receptors
  IC50: > 10000 nM
  Kb: > 449 nM
Human alpha2C receptors
  IC50: 0.12 nM
  Kb: 0.012 nM

## O=c1[nH]c2ccccc2c(=O)n1[C@H]1CCCN(C[C@H]2COc3ccccc3O2)C1 [example 72, 3-((S)-1-(((S)-2,3-Dihydrobenzo[b][1,4]dioxin-2-yl)methyl)-piperidin-3-yl)quinazoline-2,4(1H,3H)-dione]
Human alpha2A receptors
  IC50: > 10000 nM
  Kb: > 449 nM
Human alpha2C receptors
  IC50: 0.124 nM
  Kb: 0.012 nM

## CCC1(c2ccccc2)C(=O)N([C@H]2CCCN(C[C@H]3COc4ccccc4O3)C2)C(=O)N1C (stereo partly drawn) [example 73, 3-((S)-1-(((S)-2,3-Dihydrobenzo[b][1,4]dioxin-2-yl)methyl)-piperidin-3-yl)-5-ethyl-1-methyl-5-phenylimidazolidine-2,4-dione]
Human alpha2A receptors
  IC50: 185 nM
  Kb: 8 nM
Human alpha2C receptors
  IC50: < 0.1 nM
  Kb: < 0.01 nM

## CC1(c2ccccc2)NC(=O)N([C@H]2CCCN(C[C@H]3COc4ccccc4O3)C2)C1=O (stereo partly drawn) [example 74, 3-((S)-1-(((S)-2,3-Dihydrobenzo[b][1,4]dioxin-2-yl)methyl)piperidin-3-yl)-5-methyl-5-phenylimidazolidine-2,4-dione]
Human alpha2A receptors
  IC50: 13 nM
  Kb: 1 nM
Human alpha2C receptors
  IC50: < 0.1 nM
  Kb: < 0.01 nM

## O=C1c2cccnc2C(=O)N1[C@H]1CCCN(C[C@H]2COc3ccccc3O2)C1 [example 75, 6-((S)-1-(((S)-2,3-Dihydrobenzo[b][1,4]dioxin-2-yl)methyl)piperidin-3-yl)-5H-pyrrolo[3,4-b]pyridine-5,7(6H)-dione]
Human alpha2A receptors
  IC50: > 10000 nM
  Kb: > 449 nM
Human alpha2C receptors
  IC50: 0.95 nM
  Kb: 0.097 nM

## O=C1c2ccncc2CN1[C@H]1CCCN(C[C@H]2COc3ccccc3O2)C1 [example 76, 2-((S)-1-(((S)-2,3-Dihydrobenzo[b][1,4]dioxin-2-yl)methyl)piperidin-3-yl)-2,3-dihydro-1H-pyrrolo[3,4-c]pyridin-1-one]
Human alpha2A receptors
  IC50: > 10000 nM
  Kb: > 449 nM
Human alpha2C receptors
  IC50: 1770 nM
  Kb: 178 nM

## O=C1c2ncccc2CN1[C@H]1CCCN(C[C@H]2COc3ccccc3O2)C1 [example 77, 6-((S)-1-(((S)-2,3-Dihydrobenzo[b][1,4]dioxin-2-yl)methyl)piperidin-3-yl)-5H-pyrrolo[3,4-b]pyridin-7(6H)-one]
Human alpha2A receptors
  IC50: > 10000 nM
  Kb: > 449 nM
Human alpha2C receptors
  IC50: 10.5 nM
  Kb: 1.05 nM

## O=C1c2ncncc2CN1[C@H]1CCCN(C[C@H]2COc3ccccc3O2)C1 [example 78, 6-((S)-1-(((S)-2,3-Dihydrobenzo[b][1,4]dioxin-2-yl)methyl)piperidin-3-yl)-5H-pyrrolo[3,4-d]pyrimidin-7(6H)-one]
Human alpha2A receptors
  IC50: > 10000 nM
  Kb: > 449 nM
Human alpha2C receptors
  IC50: 256 nM
  Kb: 25.8 nM

## O=C1c2scnc2CN1[C@H]1CCCN(C[C@H]2COc3ccccc3O2)C1 [example 79, 5-((S)-1-(((S)-2,3-Dihydrobenzo[b][1,4]dioxin-2-yl)methyl)piperidin-3-yl)-4H-pyrrolo[3,4-d]thiazol-6(5H)-one]
Human alpha2A receptors
  IC50: > 10000 nM
  Kb: > 449 nM
Human alpha2C receptors
  IC50: 5.4 nM
  Kb: 0.544 nM

## Cn1ncc2c1CN([C@H]1CCCN(C[C@H]3COc4ccccc4O3)C1)C2=O [example 80, 5-((S)-1-(((S)-2,3-Dihydrobenzo[b][1,4]dioxin-2-yl)methyl)piperidin-3-yl)-1-methyl-5,6-dihydropyrrolo[3,4-c]pyrazol-4(1H)-one]
Human alpha2A receptors
  IC50: > 10000 nM
  Kb: > 449 nM
Human alpha2C receptors
  IC50: > 10000 nM
  Kb: > 1010 nM

## O=S1(=O)c2ccccc2CN1[C@H]1CCCN(C[C@H]2COc3ccccc3O2)C1 [example 81, 2-((S)-1-(((S)-2,3-Dihydrobenzo[b][1,4]dioxin-2-yl)methyl)piperidin-3-yl)-2,3-dihydrobenzo[d]isothiazole 1,1-dioxide]
Human alpha2A receptors
  IC50: > 10000 nM
  Kb: > 449 nM
Human alpha2C receptors
  IC50: 653 nM
  Kb: 65.7 nM

## Fc1ccc2ncn([C@H]3CCCN(C[C@H]4COc5ccccc5O4)C3)c2c1 [example 82, 1-((S)-1-(((S)-2,3-Dihydrobenzo[b][1,4]dioxin-2-yl)methyl)piperidin-3-yl)-6-fluoro-1H-benzo[d]imidazole]
Human alpha2A receptors
  IC50: > 10000 nM
  Kb: > 449 nM
Human alpha2C receptors
  IC50: < 0.1 nM
  Kb: < 0.01 nM
